Values joined by “and” are separate entries in the source; they are usually repeats but may differ in a detail not shown here. Equal entries are not always repeated.
Columns and labels:
[1] = molecular target: T1, SARS-CoV-2 MD (Severe acute respiratory syndrome coronavirus 2, UniProt P0DTD1); type: binding
[2] = molecular target: T1, SARS-CoV-2 MD; type: biochemical
[3] = molecular target: T2, CHIKV MD (Chikungunya virus, UniProt Q8JUX6); type: binding
[4] = molecular target: T1, SARS-CoV-2 MD; type: binding; remark: listed apart in the source
[5] = molecular target: hPARP14 MD2 (Homo sapiens, UniProt Q460N5); assay: biochemical; type: binding
Sequence of hPARP14 MD2 (Q460N5 999-1191): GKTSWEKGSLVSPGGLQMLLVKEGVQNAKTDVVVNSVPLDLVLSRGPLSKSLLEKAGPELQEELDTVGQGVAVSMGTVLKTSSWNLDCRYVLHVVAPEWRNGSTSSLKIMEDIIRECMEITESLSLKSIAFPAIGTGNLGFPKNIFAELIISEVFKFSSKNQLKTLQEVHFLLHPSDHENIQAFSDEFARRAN

[6] = tested on: viral MDs; type: biochemical
[7] = molecular target: T2, CHIKV MD; type: biochemical
[8] = molecular target: T3, MAYV MD (Mayaro virus, UniProt Q8QZ73); type: binding
T3 sequence (Q8QZ73 1335-1493 limits assumed): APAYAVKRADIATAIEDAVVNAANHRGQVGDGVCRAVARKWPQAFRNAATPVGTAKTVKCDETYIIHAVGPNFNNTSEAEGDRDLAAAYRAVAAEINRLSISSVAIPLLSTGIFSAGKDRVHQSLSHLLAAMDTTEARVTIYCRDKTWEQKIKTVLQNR

[9] = molecular target: T2, CHIKV MD; assay: biochemical; type: binding
[10] = molecular target: T3, MAYV MD; type: biochemical

T2 sequence (Q8JUX6 1334-1493 limits assumed): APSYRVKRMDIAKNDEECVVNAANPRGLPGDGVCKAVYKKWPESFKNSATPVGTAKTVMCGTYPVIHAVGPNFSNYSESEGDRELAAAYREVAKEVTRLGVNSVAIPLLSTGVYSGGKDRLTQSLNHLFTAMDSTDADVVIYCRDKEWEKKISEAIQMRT

| Compound | exchange regime on NMR time scale between free and bound form [1] | Initial substrate decay rate k [2] | exchange regime on NMR time scale [3] | -T*ΔS [4] [kcal/mol] | ΔH [4] [kcal/mol] | ΔS [4] | Kd [5] [µM] | reduction of the k value [6] | Initial substrate decay rate k [7] [µM/min] | exchange regime on NMR time scale [8] | Kd [9] [µM] | reduction of the k value [2] [%] | Initial substrate decay rate k [10] |
| --- | --- | --- | --- | --- | --- | --- | --- | --- | --- | --- | --- | --- | --- |
| Nc1ncnc2c1ncn2[C@@H]1O[C@H](CO)[C@@H](O)[C@H]1O [Adenosine] | fast exchange regime |  |  |  |  |  |  |  |  |  |  |  |  |
| CCC(CC)COC(=O)[C@H](C)N[P@](=O)(OC[C@H]1O[C@@](C#N)(c2ccc3c(N)ncnn23)[C@H](O)[C@@H]1O)Oc1ccccc1 [Remdesivir] |  | 0.157 ± 0.012 µM/min and 0.169 ± 0.002 µM/min |  |  |  |  |  |  |  |  |  |  |  |
| N#C[C@@]1(c2ccc3c(N)ncnn23)O[C@H](CO)[C@@H](O)[C@H]1O [GS-441524] | slow exchange regime | 0.121 ± 0.002 µM/min and 0.075 ± 0.003 µM/min | fast and intermediate exchange regime | -1.55 | -5.25 ± 0.13 | +5.2 cal/mol K-1 | ~250 | 15–32% | 0.179 ± 0.003 | fast and intermediate exchange regime | ~100 | 60 | 0.190 ± 0.002 µM/min and 0.153 ± 0.003 µM/min |
